The values that follow are results of earlier work, collected in US20180256623A1, “COMPOSITIONS AND METHOD FOR REGULATING ADIPOSE TISSUE LIPOLYSIS, INSULIN-RESISTANCE, AND HYPERGLYCEMIA” (University of Virginia Patent Foundation, priority 2015, published 2018).

Each structure is given as a SMILES string.

The first data set has as its target T1, HSL (Homo sapiens, UniProt Q05469).
T1 sequence (Q05469 1-1076): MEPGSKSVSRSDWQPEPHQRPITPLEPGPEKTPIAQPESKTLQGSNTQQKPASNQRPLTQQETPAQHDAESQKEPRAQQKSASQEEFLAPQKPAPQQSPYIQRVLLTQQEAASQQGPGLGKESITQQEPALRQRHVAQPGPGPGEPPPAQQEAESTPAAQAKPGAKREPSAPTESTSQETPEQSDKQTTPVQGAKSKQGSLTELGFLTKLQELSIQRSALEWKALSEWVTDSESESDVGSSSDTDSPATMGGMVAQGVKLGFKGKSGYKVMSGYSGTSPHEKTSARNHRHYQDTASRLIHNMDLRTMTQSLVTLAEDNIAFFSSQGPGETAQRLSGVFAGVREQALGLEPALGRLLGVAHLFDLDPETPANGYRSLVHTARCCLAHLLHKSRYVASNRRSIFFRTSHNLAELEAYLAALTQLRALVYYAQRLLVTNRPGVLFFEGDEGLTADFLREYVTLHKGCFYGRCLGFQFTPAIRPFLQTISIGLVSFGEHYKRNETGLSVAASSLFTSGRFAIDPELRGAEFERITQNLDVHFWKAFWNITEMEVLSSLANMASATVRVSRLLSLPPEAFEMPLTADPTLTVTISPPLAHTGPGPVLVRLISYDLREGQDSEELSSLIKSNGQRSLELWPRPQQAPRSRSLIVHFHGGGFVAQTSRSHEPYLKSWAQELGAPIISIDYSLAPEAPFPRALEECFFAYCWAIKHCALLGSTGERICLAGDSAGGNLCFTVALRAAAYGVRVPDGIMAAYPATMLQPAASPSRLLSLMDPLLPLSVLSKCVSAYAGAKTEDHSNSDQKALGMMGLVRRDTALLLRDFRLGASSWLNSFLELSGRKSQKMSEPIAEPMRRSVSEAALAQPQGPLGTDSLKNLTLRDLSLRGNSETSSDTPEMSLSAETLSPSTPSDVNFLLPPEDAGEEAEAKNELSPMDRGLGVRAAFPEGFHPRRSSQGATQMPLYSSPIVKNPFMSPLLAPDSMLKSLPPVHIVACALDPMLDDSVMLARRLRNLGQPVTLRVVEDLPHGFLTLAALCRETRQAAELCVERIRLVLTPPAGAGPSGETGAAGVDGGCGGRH
The settings on record: Table 1, 4-substituted 5-(2H)-isoxazolones; means of three experiments; cited from earlier work.
The IC50 is the midpoint of a concentration-inhibition curve. As for `Cc1c(C2CCSCC2)c(=O)on1C(=O)N1CCCCC1` [Compound 15], the IC50 is 55 nM.
As for `Cc1c(-c2ccccc2)c(=O)on1C(=O)N1CCCCC1` [Compound 19], the IC50 is 17 nM.

The same data set, now with this note: Table 2, acyclic ureas; means of three experiments; Na = not active; cited from earlier work.
On to `Cc1c(C(C)C)c(=O)on1C(=O)NC(C)(C)C` [Compound 20], for which the IC50 was greater than 1000 nM.
`Cc1c(C(C)C)c(=O)on1C(=O)Nc1ccccc1` [Compound 21]: the half-inhibitory concentration (IC50) was greater than 1000 nM.

Still in this data set, the particulars now being: Table 3, cyclic amine-derived ureas; means of three experiments; Na = not active; cited from earlier work.
As to `Cc1c(C(C)C)c(=O)on1C(=O)N1CCc2ccccc21` [Compound 44], the IC50 is greater than 1000 nM.
In the case of `Cc1c(C(C)C)c(=O)on1C(=O)N1CCNCC1` [Compound 46], the IC50 was greater than 1000 nM.

The data set is the same for the next values; noted with them: piperidine derivatives; means of three experiments; Na = not active; cited from earlier work.
As to `Cc1c(C(C)C)c(=O)on1C(=O)N1CCC(C(=O)N(C)C)CC1` [Compound 84], the half-inhibitory concentration (IC50) was greater than 1000 nM.
For `Cc1nnc(C2CCN(C(=O)n3oc(=O)c(C(C)C)c3C)CC2)o1` [Compound 86], the concentration for half-maximal inhibition (IC50) is greater than 1000 nM.
With `Cc1c(C(C)C)c(=O)on1C(=O)N1CCC(C#N)(c2ccccc2)CC1` [Compound 91], the IC50 was greater than 1000 nM.
`Cc1c(C(C)C)c(=O)on1C(=O)N1CCC(O)(c2ccccc2)CC1` [Compound 92]: the IC50 was greater than 1000 nM.

The subject of another data set is 3T3-L1. Particulars: Table 1, 4-substituted 5-(2H)-isoxazolones; means of three experiments; cited from earlier work.
In the case of `Cc1c(Sc2ccc(Cl)cc2)c(=O)on1C(=O)N1CCCCC1` [Compound 1], the IC50 was 135 nM.
As for `Cc1c(Sc2ccccc2)c(=O)on1C(=O)N1CCCCC1` [Compound 3], the IC50 is 190 nM.
Turning to `Cc1c(Cc2ccccc2)c(=O)on1C(=O)N1CCCCC1` [Compound 4], the IC50 is 90 nM.
Turning to `Cc1c(C)n(C(=O)N2CCCCC2)oc1=O` [Compound 5], the 50% inhibitory concentration (IC50) was 655 nM.
`CCc1c(C)n(C(=O)N2CCCCC2)oc1=O` [Compound 6]: the IC50 is 325 nM.
In the case of `Cc1c(C(C)C)c(=O)on1C(=O)N1CCCCC1` [Compound 8], the IC50 was 75 nM.
`Cc1c(CC(C)C)c(=O)on1C(=O)N1CCCCC1` [Compound 9]: the IC50 is 32 nM.
Regarding `Cc1c(C(C)(C)C)c(=O)on1C(=O)N1CCCCC1` [Compound 10], the IC50 is 90 nM.
In the case of `Cc1c(C2CCCC2)c(=O)on1C(=O)N1CCCCC1` [Compound 11], the IC50 is 22 nM.
Turning to `Cc1c(C2CCCCC2)c(=O)on1C(=O)N1CCCCC1` [Compound 12], the IC50 is 27 nM.
Consider `Cc1c(C2CCOCC2)c(=O)on1C(=O)N1CCCCC1` [Compound 13], for which the IC50 is 200 nM.
Turning to `Cc1c(C2CCSCC2)c(=O)on1C(=O)N1CCCCC1` [Compound 14], the IC50 is 98 nM.
In the case of `Cc1c(C2CCSCC2)c(=O)on1C(=O)N1CCCCC1` [Compound 15], the IC50 is 380 nM.
As for `COCCc1c(C)n(C(=O)N2CCCCC2)oc1=O` [Compound 16], the IC50 is 180 nM.
On to `Cc1c(CCOc2ccccc2)c(=O)on1C(=O)N1CCCCC1` [Compound 17], for which the IC50 is 2 nM.
With `Cc1c(-c2ccccc2)c(=O)on1C(=O)N1CCCCC1` [Compound 19], the IC50 was 150 nM.

The same data set, now with this note: Table 2, acyclic ureas; means of three experiments; Na = not active; cited from earlier work.
Regarding `Cc1c(C(C)C)c(=O)on1C(=O)N(C)C1CCCCC1` [Compound 24], the IC50 was greater than 1000 nM.
For `Cc1c(C(C)C)c(=O)on1C(=O)N(C)Cc1ccccc1` [Compound 25], the IC50 is 67 nM.
As for `Cc1c(C(C)C)c(=O)on1C(=O)N(C)Cc1ccccc1F` [Compound 26], the IC50 was 10 nM.
Take `Cc1c(C(C)C)c(=O)on1C(=O)N(C)Cc1ccc(F)cc1` [Compound 28]: the IC50 is 1000 nM.
With `Cc1c(C(C)C)c(=O)on1C(=O)N(C)Cc1ccco1` [Compound 30], the IC50 is 9 nM.
For the compound `Cc1c(C(C)C)c(=O)on1C(=O)N(C)CCc1ccccc1` [Compound 33], the IC50 was 300 nM.
Take `Cc1c(C(C)C)c(=O)on1C(=O)N(C)c1ccc(Cl)cc1` [Compound 37]: the IC50 was greater than 1000 nM.
Take `CCN(CC)C(=O)n1oc(=O)c(C(C)C)c1C` [Compound 39]: the IC50 was 600 nM.

Staying with this data set, now noted: Table 3, cyclic amine-derived ureas; means of three experiments; Na = not active; cited from earlier work.
Take `Cc1c(C(C)C)c(=O)on1C(=O)N1CCCCC1` [Compound 8]: the IC50 was 75 nM.
As to `Cc1c(C(C)C)c(=O)on1C(=O)N1CCCC1` [Compound 41], the IC50 was 28 nM.
`Cc1c(C(C)C)c(=O)on1C(=O)N1CC=CC1` [Compound 43]: the IC50 is 120 nM.
As for `Cc1c(C(C)C)c(=O)on1C(=O)N1CCN(C)CC1` [Compound 47], the IC50 was greater than 1000 nM.
Take `Cc1c(C(C)C)c(=O)on1C(=O)N1CCN(Cc2ccccc2)CC1` [Compound 48]: the IC50 is 56 nM.
On to `Cc1c(C(C)C)c(=O)on1C(=O)N1CCN(c2ccccc2)CC1` [Compound 49], for which the IC50 was 27 nM.
For the compound `Cc1c(C(C)C)c(=O)on1C(=O)N1CCOCC1` [Compound 53], the IC50 was greater than 1000 nM.
In the case of `Cc1c(C(C)C)c(=O)on1C(=O)N1CCSCC1` [Compound 54], the IC50 was 290 nM.
Turning to `Cc1c(C(C)C)c(=O)on1C(=O)N1CCCCCC1` [Compound 55], the IC50 is 215 nM.

The same data set, now with this note: piperidine derivatives; means of three experiments; Na = not active; cited from earlier work.
`Cc1c(C(C)C)c(=O)on1C(=O)N1CCCCC1` [Compound 8]: the IC50 was 75 nM.
With `Cc1c(C(C)C)c(=O)on1C(=O)N1CCCCC1C` (centres unmarked) [Compound 57], the IC50 is 400 nM.
Regarding `Cc1c(C(C)C)c(=O)on1C(=O)N1CCC[C@@H](C)C1` [Compound 58], the IC50 was 187 nM.
On to `Cc1c(C(C)C)c(=O)on1C(=O)N1CCC[C@H](C)C1` [Compound 59], for which the IC50 is 28 nM.
With `Cc1c(C(C)C)c(=O)on1C(=O)N1CCCC(CO)C1` (centres unmarked) [Compound 60], the IC50 was 800 nM.
As for `CCOC(=O)C1CCCN(C(=O)n2oc(=O)c(C(C)C)c2C)C1` (centres unmarked) [Compound 62], the IC50 was 170 nM.
`Cc1c(C(C)C)c(=O)on1C(=O)N1CCC(C)CC1` [Compound 63]: the IC50 is 40 nM.
As to `CCCCc1c(C)n(C(=O)N2CCC(C)CC2)oc1=O` [Compound 64], the IC50 is 10 nM.
As to `Cc1c(C2CCCCC2)c(=O)on1C(=O)N1CCC(C)CC1` [Compound 66], the IC50 was 20 nM.
For `CCOCCc1c(C)n(C(=O)N2CCC(C)CC2)oc1=O` [Compound 67], the IC50 was 20 nM.
Regarding `Cc1c(C2CCSCC2)c(=O)on1C(=O)N1CCC(C)CC1` [Compound 68], the IC50 was 24 nM.
On to `Cc1c(C(C)C)c(=O)on1C(=O)N1CCC(c2ccccc2)CC1` [Compound 70], for which the IC50 was 33 nM.
Take `Cc1c(C2CCCC2)c(=O)on1C(=O)N1CCC(c2ccccc2)CC1` [Compound 72]: the IC50 is 8 nM.
Take `COCCc1c(C)n(C(=O)N2CCC(c3ccccc3)CC2)oc1=O` [Compound 73]: the IC50 was 5 nM.
`Cc1c(C(C)C)c(=O)on1C(=O)N1CCC(c2cccc(F)c2)CC1` [Compound 74]: the IC50 is 4 nM.
On to `COCCc1c(C)n(C(=O)N2CCC(c3cccc(F)c3)CC2)oc1=O` [Compound 75], for which the half-inhibitory concentration (IC50) is 0.2 nM.
On to `COCCc1c(C)n(C(=O)N2CCC(c3cccc(C)c3)CC2)oc1=O` [Compound 76], for which the IC50 was 4 nM.
Regarding `Cc1ccc(C2CCN(C(=O)n3oc(=O)c(C(C)C)c3C)CC2)cc1` [Compound 77], the IC50 is 246 nM.
For the compound `Cc1c(C(C)C)c(=O)on1C(=O)N1CCC(=O)CC1` [Compound 83], the IC50 is 150 nM.
`Cc1c(C(C)C)c(=O)on1C(=O)N1CC(C)CCC1C` (centres unmarked) [Compound 88]: the IC50 is greater than 1000 nM.
For `Cc1c(C(C)C)c(=O)on1C(=O)N1CC(C)CC(C)C1` (centres unmarked) [Compound 90], the IC50 is 140 nM.
Regarding `Cc1c(C(C)C)c(=O)on1C(=O)N1CCC(O)(c2ccccc2)CC1` [Compound 92], the IC50 was greater than 1000 nM.
